The values that follow come from patent US11524041B2, “Ginkgo diterpene lactone composition” (Jiangsu Kanion Pharmaceutical Co., Ltd., priority 2017, dated 2022).

SMILES strings stand for the structures. Where a name gives a salt, the structure may show the parent alone.

Common to all, as to type: in vivo
For test [1], the system named is mice. The experiment in a line: Forced swimming experiment for mice. Particulars: compositions 9 mg/kg ig, imipramine 50 mg/kg oral, once a day for 5 days, difference of immobility times, X ± S. As to the method: 2.2 Forced swimming experiment for mice: Male mice weighing 20-24 g were selected, grouped and administered in the same manner as in Section 2.1. The experiment was started 30 minutes after the fifth administration. The mice were placed in a graduated cylinder (20 cm in height and 14 cm in diameter) with 30° C. water in the depth of 10 cm. The difference between the two immobility times of the mice themselves were calculated and then statistical analysis was conducted after Ig (X++45) conversion.
(§1) 2.4 Statistical analysis: The data are expressed as (x±s). All data are analyzed by one-way ANOVA using SPSS 19.0 software to determine the significance of the difference.

The subject of test [2] is rats. The experiment in a line: Electric shock avoidance experiment for rats (learned helplessness electric shock model). Particulars: compositions 6.26 mg/kg ig, imipramine 33 mg/kg oral, once a day for 35 days, results of the fifth training, X ± S.
Description: 2.3 Electric shock avoidance experiment for rats: The anti-depression effect of the drug was observed using a learned helplessness electric shock model. Healthy male rats weighing 180-220 g were selected and randomly divided into normal group, model group, positive drug group and Ginkgo diterpene lactone composition groups A-K, with 10 rats in each group. The rats in the […] were orally administered with the same normal saline every day; the rats in the positive drug group were orally administered with imipramine tablet in a daily dose of 33 mg/kg, and the rats in the Ginkgo diterpene lactone composition groups A-K were administered in a daily dose of 6.26 mg/kg (ig), once a day for 35 consecutive days. The experiment was started 30 minutes after the 30th administration. On the first day of the experiment, “helpless induction” was performed. […] The training was conducted for 5 days, and the number of successful escapes of each rat during training was recorded every day, and the results of the fifth training were counted.
as §1

The test system of test [3] is level of oxidative stress of rats. Briefly: Detection of oxidative stress in serum of rats given alcohol. Particulars: rat serum, alcohol 6 g/kg daily, compositions 3 mg/kg iv, edaravone 6.25 mg/kg iv, daily for 5 weeks, n = 10. How it is done: 2.1 Modeling and administration: Healthy male rats were selected and randomly divided into normal group, model group, positive drug group and Ginkgo diterpene lactone composition groups A-K, With the exception of the normal group, the other groups were orally administrated with alcohol with a daily dose of 6 g/kg. Rats in the positive drug group were administrated with edaravone injection (iv) in a daily dose of 6.25 mg/kg, and rats in the Ginkgo diterpene lactone composition groups A-K were administrated in a daily dose of 3 mg/kg (iv), they were continuously administrated or given alcohol for 5 weeks.
2.2 Detection of oxidative stress: After the administration, rats in each group were anesthetized with 10% chloral hydrate, abdominal aortic blood was collected and then subjected to heparin anticoagulation to separate serum; changes of MDA, SOD, GSH and TAC levels in the serum were detected according to the instructions of the kits, and the protein content of each sample was measured using the BCA protein test kit.
2.3 Statistical analysis: The data are expressed as (x±s). All data are analyzed by one-way ANOVA using SPSS 19.0 software to determine the significance of the difference.

The mark [4] stands for this setting: n = 10, listed as imipramine, hydrochloride.

On to `CN(C)CCCN1c2ccccc2CCc2ccccc21` [Imipramine, imipramine hydrochloride], for which the “Swimming interval (X + 45) conversion” value in test [1] (n = 10, hydrochloride) was 4.03 ± 0.05^; in test [1] (setting [4]) it was “significantly prolonged”. For the same molecule, the “Accumulative number of successful escapes” value is listed as 24.5 ± 1.5 in test [2] (n = 10, hydrochloride) and “significantly increased” in test [2] (setting [4]).
In test [3], `CC1=NN(c2ccccc2)C(=O)C1` [Edaravone, edaravone] displayed an MDA of 59.6 ± 20.6 nmol/mg, an SOD of 769.5 ± 55.5 U/mg and a TAC of 243.6 ± 0.9 U/mg. For the same molecule, in test [3] (listed as edaravone injection), the GSH result is recorded as “significantly corrected”, the MDA result is reported as “significantly corrected”, the SOD result was “significantly corrected” and the TAC result is on record as “significantly corrected”.
